# Results reported in US10399974B2, “N2-phenyl-pyrido[3,4-D]pyrimidine-2, 8-diamine derivatives and their use as Mps1 inhibitors” (Cancer Research Technology Limited, priority 2014, dated 2019).
# Biological target: full length MPS1 (Homo sapiens (Human), UniProt P33981)
# Assay: Measurement of Inhibition of MPS1 Kinase
# Format: biochemical
# Details: full length MPS1 12.5 nM or 3 nM, H236 peptide 5 μM, ATP 10 μM, 60 min at room temperature, Caliper EZ reader II; read-out: MPS1 IC50
# Method: Measurement of Inhibition of MPS1 Kinase
# (5 μM), ATP (10 μM), either DMSO (1% v/v) or the test compound (in the range 0.25 nM-100 μM in 1% DMSO) and assay buffer (50 mM HEPES (pH 7.0), 0.02% NaN3, 0.01% BSA, 0.1 mM Orthovandate, […], 1 μM DTT, Roche protease inhibitor). The reaction was carried out for 60 min at room temperature and stopped by the addition of buffer (10 μl) containing 20 mM EDTA, 0.05% (v/v) Brij-35, in 0.1M HEPES-buffered saline (Free acid, Sigma, UK). The plate was read on a Caliper EZ reader II (Caliper Life Sciences).
# The reader provides a Software package (‘Reviewer’) which converts the peak heights into % conversion by measuring both product and substrate peak and also allows selection of control well which represent 0% and 100% inhibition, respectively. The % inhibition of the compounds is calculated relative to the means of selected control wells. IC50s are determined by testing the compounds at a range of concentrations from 0.25 nM-100 μM. The % inhibitions at each concentration are then fitted to a 4 parameter logistic fit: y=(a+((b−a)/(1+((c/x^d)))) where a=asym min, b=asym max, c=IC50 and d=hill coefficient
# full length MPS1, sequence (P33981 whole entry): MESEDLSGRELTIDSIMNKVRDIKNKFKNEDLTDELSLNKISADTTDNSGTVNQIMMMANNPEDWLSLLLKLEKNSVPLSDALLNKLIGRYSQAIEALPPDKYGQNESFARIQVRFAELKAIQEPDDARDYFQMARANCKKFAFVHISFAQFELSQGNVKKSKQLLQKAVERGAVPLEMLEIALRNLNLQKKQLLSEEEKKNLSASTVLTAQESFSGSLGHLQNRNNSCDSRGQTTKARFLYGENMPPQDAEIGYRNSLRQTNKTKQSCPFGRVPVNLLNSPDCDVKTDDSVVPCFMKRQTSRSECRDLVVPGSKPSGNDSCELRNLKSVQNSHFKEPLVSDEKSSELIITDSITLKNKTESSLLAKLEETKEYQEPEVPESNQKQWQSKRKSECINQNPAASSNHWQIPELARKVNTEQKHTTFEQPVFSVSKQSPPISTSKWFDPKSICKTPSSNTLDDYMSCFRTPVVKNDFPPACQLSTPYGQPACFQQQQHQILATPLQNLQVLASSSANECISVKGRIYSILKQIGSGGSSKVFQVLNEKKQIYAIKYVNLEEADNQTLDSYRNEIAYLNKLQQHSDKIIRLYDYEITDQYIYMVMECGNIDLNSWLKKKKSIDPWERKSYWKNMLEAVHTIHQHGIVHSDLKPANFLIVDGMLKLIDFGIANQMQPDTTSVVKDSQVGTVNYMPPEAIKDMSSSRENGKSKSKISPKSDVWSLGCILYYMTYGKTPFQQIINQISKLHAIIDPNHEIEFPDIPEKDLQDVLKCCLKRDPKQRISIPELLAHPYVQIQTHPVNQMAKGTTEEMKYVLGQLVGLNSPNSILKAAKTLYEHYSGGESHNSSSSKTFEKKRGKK
row,Structure (SMILES),IC50
1,"COc1cc(-c2cnnn2C)ccc1Nc1ncc2cc(C)nc(NCC(C)(C)C)c2n1 [Example 1, N2-(2-methoxy-4-(1-methyl-1H-1,2,3-triazol-5-yl)phenyl)-6-methyl-N8-neopentylpyrido[3,4-d]pyrimidine-2,8-diamine]",0.5 nM
2,"CCOc1cc(-c2nncn2C)ccc1Nc1ncc2cc(C)nc(NCC3(C)CCOC3)c2n1 (centres unmarked) [Example 2, N2-(2-ethoxy-4-(4-methyl-4H-1,2,4-triazol-3-yl)phenyl)-6-methyl-N8-((3-methyltetrahydrofuran-3-yl)methyl)pyrido[3,4-d]pyrimidine-2,8-diamine]",2 nM
3,"CCOc1cc(-c2nncn2C)ccc1Nc1ncc2cc(C)nc(N3CC(C)(C#N)C3)c2n1 [Example 3, 1-(2-((2-ethoxy-4-(4-methyl-4H-1,2,4-triazol-3-yl)phenyl)amino)-6-methylpyrido[3,4-d]pyrimidin-8-yl)-3-methylazetidine-3-carbonitrile]",3 nM
4,"CCOc1cc(-c2nncn2C)ccc1Nc1ncc2cc(C)nc(N3CC4(CCOCC4)C3)c2n1 [Example 4, N-(2-ethoxy-4-(4-methyl-4H-1,2,4-triazol-3-yl)phenyl)-6-methyl-8-(7-oxa-2-azaspiro[3.5]nonan-2-yl)pyrido[3,4-d]pyrimidin-2-amine]",2 nM
5,"CCOc1cc(-c2nncn2C)ccc1Nc1ncc2cc(C)nc(N3CCC(C#N)CC3)c2n1 [Example 5, 1-(2-((2-ethoxy-4-(4-methyl-4H-1,2,4-triazol-3-yl)phenyl)amino)-6-methylpyrido[3,4-d]pyrimidin-8-yl)piperidine-4-carbonitrile]",3 nM
6,"CCOc1cc(-c2nnc(C)n2C)ccc1Nc1ncc2cc(C)nc(NCC(C)(C)C)c2n1 [Example 7, N2-(4-(4,5-dimethyl-4H-1,2,4-triazol-3-yl)-2-ethoxyphenyl)-6-methyl-N8-neopentylpyrido[3,4-d]pyrimidine-2,8-diamine]",4 nM
7,"CCOc1cc(-c2nncn2C)ccc1Nc1ncc2cc(C)nc(N3CC(C)(O)C3)c2n1 [Example 9, 1-(2-((2-ethoxy-4-(4-methyl-4H-1,2,4-triazol-3-yl)phenyl)amino)-6-methylpyrido[3,4-d]pyrimidin-8-yl)-3-methylazetidin-3-ol]",4 nM
8,"COc1cc(-c2ccn(C)n2)ccc1Nc1ncc2cc(C)nc(NCC(C)(C)C)c2n1 [Example 11, N2-(2-methoxy-4-(1-methyl-1H-pyrazol-3-yl)phenyl)-6-methyl-N8-neopentylpyrido[3,4-d]pyrimidine-2,8-diamine]",36 nM
9,"COc1cc(-c2ccnn2C)ccc1Nc1ncc2cc(C)nc(NCC(C)(C)C)c2n1 [Example 13, N2-(2-methoxy-4-(1-methyl-1H-pyrazol-5-yl)phenyl)-6-methyl-N8-neopentylpyrido[3,4-d]pyrimidine-2,8-diamine]",18 nM
10,"COc1cc(-c2ncco2)ccc1Nc1ncc2cc(C)nc(NCC(C)(C)C)c2n1 [Example 14, N2-(2-methoxy-4-(oxazol-2-yl)phenyl)-6-methyl-N8-neopentylpyrido[3,4-d]pyrimidine-2,8-diamine]",59 nM
11,"Cc1cc2cnc(Nc3ccc(-c4nncn4C)cc3OC(F)F)nc2c(NCC(C)(C)C)n1 [Example 15, N2-(2-(difluoromethoxy)-4-(4-methyl-4H-1,2,4-triazol-3-yl)phenyl)-6-methyl-N8-neopentylpyrido[3,4-d]pyrimidine-2,8-diamine]",1 nM
12,"COc1cc(-c2oc(C)nc2C)ccc1Nc1ncc2cc(C)nc(NCC(C)(C)C)c2n1 [Example 17, N2-(4-(2,4-dimethyloxazol-5-yl)-2-methoxyphenyl)-6-methyl-N8-neopentylpyrido[3,4-d]pyrimidine-2,8-diamine]",43 nM
13,"COc1cc(-c2nnc(C)n2C)ccc1Nc1ncc2cc(C)nc(NCC(C)(C)C)c2n1 [Example 21, N2-(4-(4,5-dimethyl-4H-1,2,4-triazol-3-yl)-2-methoxyphenyl)-6-methyl-N8-neopentylpyrido[3,4-d]pyrimidine-2,8-diamine]",1 nM
14,"CCOc1cc(-c2nncn2CC)ccc1Nc1ncc2cc(C)nc(N3CC(C)(C)C3)c2n1 [Example 25, 8-(3,3-dimethylazetidin-1-yl)-N-(2-ethoxy-4-(4-ethyl-4H-1,2,4-triazol-3-yl)phenyl)-6-methylpyrido[3,4-d]pyrimidin-2-amine]",6 nM
15,"CCOc1cc(-c2nncn2CC)ccc1Nc1ncc2cc(C)nc(NCC(C)(C)C)c2n1 [Example 26, N2-(2-ethoxy-4-(4-ethyl-4H-1,2,4-triazol-3-yl)phenyl)-6-methyl-N8-neopentylpyrido[3,4-d]pyrimidine-2,8-diamine]",6 nM
16,"CCOc1cc(-c2nncn2C)ccc1Nc1ncc2cc(C)nc(N3CCC(C)(C#N)CC3)c2n1 [Example 28, 1-(2-((2-ethoxy-4-(4-methyl-4H-1,2,4-triazol-3-yl)phenyl)amino)-6-methylpyrido[3,4-d]pyrimidin-8-yl)-4-methylpiperidine-4-carbonitrile]",2 nM

# Further compounds by falling IC50, results first:
row,IC50,Structure (SMILES)
1,20 nM,"CCOc1cc(-c2nnc(C)n2C)ccc1Nc1ncc2cc(C)nc(N3CC(C)(C)C3)c2n1 [Example 22, N-(4-(4,5-dimethyl-4H-1,2,4-triazol-3-yl)-2-ethoxyphenyl)-8-(3,3-dimethylazetidin-1-yl)-6-methylpyrido[3,4-d]pyrimidin-2-amine]"
2,12 nM,"COc1cc(-c2cnc(C)n2C)ccc1Nc1ncc2cc(C)nc(N3CC4(CCOCC4)C3)c2n1 [Example 20, N-(4-(1,2-dimethyl-1H-imidazol-5-yl)-2-methoxyphenyl)-6-methyl-8-(7-oxa-2-azaspiro[3.5]nonan-2-yl)pyrido[3,4-d]pyrimidin-2-amine]"
3,6 nM,"CCOc1cc(-c2nncn2C)ccc1Nc1ncc2cc(C)nc(N3CCCC(OC)C3)c2n1 (racemic) [Example 47, Racemic-N-(2-ethoxy-4-(4-methyl-4H-1,2,4-triazol-3-yl)phenyl)-8-(3-methoxypiperidin-1-yl)-6-methylpyrido[3,4-d]pyrimidin-2-amine]"
4,5 nM,"CCOc1cc(-c2nncn2C)ccc1Nc1ncc2cc(C)nc(NC3CCOCC3)c2n1 [Example 6, N2-(2-ethoxy-4-(4-methyl-4H-1,2,4-triazol-3-yl)phenyl)-6-methyl-N8-(tetrahydro-2H-pyran-4-yl)pyrido[3,4-d]pyrimidine-2,8-diamine]"
5,5 nM,"COc1cc(-c2nnnn2C)ccc1Nc1ncc2cc(C)nc(NCC(C)(C)C)c2n1 [Example 16, N2-(2-methoxy-4-(1-methyl-1H-tetrazol-5-yl)phenyl)-6-methyl-N8-neopentylpyrido[3,4-d]pyrimidine-2,8-diamine]"
6,5 nM,"COc1cc(-c2cnc(C)n2C)ccc1Nc1ncc2cc(C)nc(N3CC(C)(C)C3)c2n1 [Example 19, N-(4-(1,2-dimethyl-1H-imidazol-5-yl)-2-methoxyphenyl)-8-(3,3-dimethylazetidin-1-yl)-6-methylpyrido[3,4-d]pyrimidin-2-amine]"
7,4 nM,"COc1cc(-c2nccn2C)ccc1Nc1ncc2cc(C)nc(NCC(C)(C)C)c2n1 [Example 12, N2-(2-methoxy-4-(1-methyl-1H-imidazol-2-yl)phenyl)-6-methyl-N8-neopentylpyrido[3,4-d]pyrimidine-2,8-diamine]"
8,4 nM,"COc1cc(-c2ncc(C)n2C)ccc1Nc1ncc2cc(C)nc(NCC(C)(C)C)c2n1 [Example 18, N2-(4-(1,5-dimethyl-1H-imidazol-2-yl)-2-methoxyphenyl)-6-methyl-N8-neopentylpyrido[3,4-d]pyrimidine-2,8-diamine]"
9,4 nM,"CCOc1cc(-c2nnc(C)n2C)ccc1Nc1ncc2cc(C)nc(N3CC4(CCOCC4)C3)c2n1 [Example 23, N-(4-(4,5-dimethyl-4H-1,2,4-triazol-3-yl)-2-ethoxyphenyl)-6-methyl-8-(7-oxa-2-azaspiro[3.5]nonan-2-yl)pyrido[3,4-d]pyrimidin-2-amine]"
10,4 nM,"CCOc1cc(-c2nncn2C)ccc1Nc1ncc2cc(C)nc(N3CCC4(CCOC4)C3)c2n1 (centres unmarked) [Example 27, N-(2-ethoxy-4-(4-methyl-4H-1,2,4-triazol-3-yl)phenyl)-6-methyl-8-(2-oxa-7-azaspiro[4.4]nonan-7-yl)pyrido[3,4-d]pyrimidin-2-amine]"
11,3 nM,"CCOc1cc(-c2nncn2C)ccc1Nc1ncc2cc(C)nc(N3CCOC(C)C3)c2n1 (racemic) [Example 48, Racemic-N-(2-ethoxy-4-(4-methyl-4H-1,2,4-triazol-3-yl)phenyl)-6-methyl-8-(2-methylmorpholino)pyrido[3,4-d]pyrimidin-2-amine]"
12,3 nM,"CCOc1cc(-c2nncn2C)ccc1Nc1ncc2cc(C)nc(NCC3(O)CCC3)c2n1 [Example 8, 1-(((2-((2-ethoxy-4-(4-methyl-4H-1,2,4-triazol-3-yl)phenyl)amino)-6-methylpyrido[3,4-d]pyrimidin-8-yl)amino)methyl)cyclobutanol]"
13,2 nM,"CCOc1cc(-c2nncn2CC)ccc1Nc1ncc2cc(C)nc(N3CC4(CCOCC4)C3)c2n1 [Example 24, N-(2-ethoxy-4-(4-ethyl-4H-1,2,4-triazol-3-yl)phenyl)-6-methyl-8-(7-oxa-2-azaspiro[3.5]nonan-2-yl)pyrido[3,4-d]pyrimidin-2-amine]"
